Values quoted from earlier work, collected in patent publication US20100125067A1, “SULFONAMIDE INHIBITORS OF CARBONIC ANHYDRASE II” (AUSPEX PHARMACEUTICALS, INC., priority 2008, published 2010).

Experiments:
carbonic anhydrase I = carbonic anhydrase I (Homo sapiens, UniProt P00915); details: as compared to the parent compound dorzolamide
carbonic anhydrase II = carbonic anhydrase II (Homo sapiens, UniProt P00918); details: as compared to the parent compound dorzolamide

carbonic anhydrase I, sequence (P00915 whole entry, species assumed): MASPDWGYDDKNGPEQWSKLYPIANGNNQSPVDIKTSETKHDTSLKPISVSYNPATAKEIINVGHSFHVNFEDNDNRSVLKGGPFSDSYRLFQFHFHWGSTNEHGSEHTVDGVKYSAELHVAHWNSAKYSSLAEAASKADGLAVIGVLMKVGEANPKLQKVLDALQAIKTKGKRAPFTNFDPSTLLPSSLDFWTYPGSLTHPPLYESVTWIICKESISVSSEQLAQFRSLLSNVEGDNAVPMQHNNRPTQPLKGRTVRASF

SMILES: CC1CC(N)c2cc(S(N)(=O)=O)sc2S1(=O)=O (centres unmarked) [N-de-ethylated metabolite]
- potency as inhibitor of carbonic anhydrase I (carbonic anhydrase I): more potent inhibitor
- potency as inhibitor of carbonic anhydrase II (carbonic anhydrase II): less potent inhibitor
